Reference: the NIST ThermoML archive (doi:10.1016/j.jct.2006.09.008)

Test: mn = molality of the nth substance listed, in mol/kg
Conditions: 350 kPa, Liquid

O=[N+]([O-])[O-].O=[N+]([O-])[O-].[Mg+2] [magnesium nitrate] + O
mass density [kg/m3]
Conditions	m1 = 0.0228	m1 = 0.0567	m1 = 0.1086	m1 = 0.2145	m1 = 0.3197	m1 = 0.4749	m1 = 0.6211	m1 = 0.811	m1 = 1	m1 = 1.014
278.15 K	1002.6	1006.37	1012.2	1023.83	1035.31	1051.77	1066.82	1086.01	1104.79	1106.04
283.15 K	1002.29	1005.98	1011.77	1023.21	1034.48	1050.8	1065.63	1084.59	1103.2	1104.4
288.15 K	1001.64	1005.28	1011.01	1022.29	1033.42	1049.55	1064.22	1082.99	1101.41	1102.61
298.15 K	999.48	1003.07	1008.68	1019.73	1030.65	1046.49	1060.93	1079.39	1097.46	1098.71
308.15 K	996.42	999.96	1005.49	1016.39	1027.14	1042.74	1056.98	1075.19	1093.03	1094.27
318.15 K	992.59	996.09	1001.54	1012.32	1022.97	1038.38	1052.47	1070.47	1088.14	1089.36
328.15 K	988.06	991.53	996.93	1007.61	1018.17	1033.44	1047.38	1065.25	1082.78	1083.97
338.15 K	982.92	986.36	991.75	1002.35	1012.86	1027.99	1041.88	1059.64	1077.04	1078.2
348.15 K	977.2	980.38	985.71	996.29	1007.11	1022.17	1035.94	1053.67	1071	1071.85
358.15 K	970.99	974.49	979.87	990.4	1000.85	1015.92	1029.76	1047.38	1064.73	1065.89
368.15 K	964.33	967.8	973.17	983.77	994.23	1009.33	1023.17	1040.85	1058.19	1059.34
